Data reported in article PMC10398685 (ACS Omega, 2023).
“Also recorded” adds a separate entry of the source.

Key:
VERO-E6 cells = test: Steady-state intracellular uptake in VERO-E6 cells; format: in vitro ADME; conditions: VERO-E6, 60 min incubation, 50 μM at t = 0
Excerpt: (§1) While an enzymatic MTase assay represents a valuable fast screening platform providing the information that can be directly used for SAR analyses, it is not fully predictive for the compounds’ activity in whole cells. In order to verify the ability of the compounds to reach the intracellular compartment, we measured the steady-state accumulation of representative compounds in intact CCRF-CEM, VERO-E6, and Calu-3 cells (Tables 3 and S2). […] Compound 12q was almost completely cleared from the medium after 60 min incubation with the cells rendering it among the most permeable compounds of the series based on Kp values. It should be noted that the apparent intracellular concentration of the compounds may be biased by their potential metabolism. Therefore, we decided to subject the selected derivatives to in vitro stability studies. […]
(§2) 3.3. Intracellular Uptake
(§3) Steady-state cellular uptake was measured in CCRF-CEM cells (ATCC, CRL-119), VERO-E6 cells (ATCC, CRL-1586) and Calu-3 cells (HTB-55), respectively. […]
(§4) The medium was stored at −20 °C […]
(§5) for later analysis of the extracellular concentration of the compounds. The cells were washed two times with 1 mL PBS (900 x g, 5 min, +4 °C), and also stored at −20 °C for subsequent analysis of the intracellular concentration of the compounds. At the day of the analysis, both media and the pelleted cells were quickly thawed. The cell pellets were extracted with 200 μL of ice-cold methanol by vigorous shaking, further diluted 1:1 with water and centrifuged at 20 000 x g for 10 min. As for the media samples, 10 μL aliquots were extracted with 990 μL of 50% methanol. The samples were then transferred to ECHO® -compatible 384-well plates and the amount of analytes were quantified by the ECHO -MS® System (Sciex) where acoustic droplet ejection module is coupled with Sciex 6500® triple quadrupole mass spectrometer operating with an electrospray ionization source. Spectrometer was run in the multiple reaction monitoring (MRM) mode. When necessary, the processed samples were further diluted in 50% methanol to fit in the calibration range. Calibration curves of the compounds in 50% methanol were measured alongside the samples within the same run. The ra tio between the total compound concentration in the cells and compound concentration in the medium (K p) at t=60 min was calculated according to: Kp = (Acell / Vcell) / Cmedium, where Acell is the amount of compound in the cell lysate, Vcell is the CCRF-CEM cell volume (3.38 μL/10^7 cells)16 and Cmedium is the compound concentration in the medium sample after correcting for sample dilution. Experiments were performed in duplicates.
(§6) For adherent cells (Vero E6 and Calu-3), the workflow was modified as follows: Cells were seeded on 6-well plates at a concentration of […] and 8.2 x 10^5 cells/well for Vero E6 and Calu-3, respectively, in 3 mL of serum-free culture media. The cells were left to attach overnight, the medium was then aspirated and replenished with 2 mL of fresh media containing the compounds (50 µM final conc). After 60 min at 37 °C the media was aspirated and the cells were washed twice with 1 mL of PBS. Then, 1 mL of fresh PBS was added and the cells were subjected to three freeze-thaw cycles and further diluted with 1:1 with MeOH. The cell lysates and the media were further processed as described above. Intracellular volume of Vero E6 and Calu-3 cells (8.6 and 14 μL/107 cells, respectively) was calculated from their diameter determined by cell counter (Luna FL) while in suspension (following the trypsinization) assuming the homogenous spheres.

[1] = biological target: SARS-CoV-2 nsp14 7-N MTase (Severe acute respiratory syndrome coronavirus 2, UniProt P0DTD1); test: biochemical; conditions: Echo MS assay, 20 nM nsp14, 4 μM SAM, 4 μM GpppA, duplicates
SARS-CoV-2 = test: microbe, parasite or virus in culture; format: cell-based; conditions: Severe acute respiratory syndrome coronavirus 2, 72 h; Calu-3 cells, MOI~0.03, 3 days incubation, CPE by XTT; read-out: EC50 (anti-SARS-CoV-2 activity)
[2] = Microsomal stability, mouse; format: in vitro ADME; conditions: triplicates; for Microsomal stability Rem. at 45 min / Microsomal stability T1/2: 0.5 mg/ml mouse microsomes, 5uM; for microsomal CLint at 5 µM / half-life at 5 µM: pH 7.4, 0.5 mg/ml mouse microsomes; for half-life at 5 µM: read-out: Microsomal stability T1/2
[3] = Microsomal stability, human; format: in vitro ADME; conditions: triplicates; for Microsomal stability Rem. at 45 min / Microsomal stability T1/2: 0.5 mg/ml human microsomes, 5uM; for microsomal CLint at 5 µM / half-life at 5 µM: pooled liver microsomes, pH 7.4, 0.5 mg/ml human microsomes; for half-life at 5 µM: read-out: Microsomal stability T1/2
Excerpt: 50% methanol. The samples were then transferred to ECHO® -compatible 384-well plates and the amount of analytes were quantified by the ECHO -MS® System (Sciex) where acoustic droplet ejection module is coupled with Sciex 6500® triple quadrupole mass spectrometer operating with an electrospray ionization source. Spectrometer was run in the multiple reaction monitoring (MRM) mode. When necessary, the processed samples were further diluted in 50% methanol to fit in the calibration range. Calibration curves of the compounds in 50% methanol were measured alongside the samples within the same run. […]
3.4. Microsomal stability […]
The reactions were […]
terminated by the addition of four volumes of ice-cold methanol, mixed vigorously and left at -20 °C for 1 h. After that, the samples were centrifuged and the supernatants were analyzed by means of ECHO-MS® System (Sciex, Framingham, MA, USA). Zero time points were prepared by adding ice-cold methanol to the mixture of compound with cofactors prior to the addition of microsomes. The microsomal half-lives (t1/2) were calculated using the equation t1/2=0.693/k, where k is the slope found in the linear fit of the natural logarithm of the fraction remaining of the parent compound vs. incubation time. Intrinsic clearance (CLint) was calculated using the following formula: CLint = V * ln2 /t1/2, where V = incubation volume per milligram of microsomal protein (µL/mg) and t1/2 = microsomal half-life. […]
3.6. Caco-2 permeability assay
Transepithelial bi-directional transport of tested compounds (5 µM, pH 7.4/7.4) across the Caco-2 monolayers was studied using the BD BioCoat HTS Caco -2 assay system (BD Biosciences, Bedford, MA) as described in detail elsewhere.17 Aliquots were collected from the donor and acceptor compartment at the end of transport period (3 h), integrity of monolayers were verified using Lucifer Yellow dye and the compounds were quantified using LC-MS/MS (Sciex 6500® triple quadrupole). The apparent permeability coefficient (Papp) was calculated from the following equation: Papp = (dQ / dt) / C0 * A, where dQ/dt is the rate of absorption of the drug across the cells, C0 is the donor compartment concentration at time zero, and A is the area of the monolayer. Efflux ratio was expressed as (Papp B-A) / (Papp A-B). Recovery (%) was determined as (total compound mass in donor and receiver compartments at the end of the incubation / initial compound mass in the donor compartment) x 100.

in vitro = conditions: human
[4] = Steady-state intracellular uptake in VERO-E6 cells; format: in vitro ADME; conditions: African green monkey, VERO-E6 cells; VERO-E6, 60 min incubation, 50 μM at t = 0; read-out: Kp (intracellular accumulation ratio IC/EC)
Excerpt: as §1, §2, §3, §4, §5, §6

COc1ccc(S(=O)(=O)N(C)C[C@H]2O[C@@H](n3cc(C#Cc4ccc(C(N)=O)cc4)c4c(N)ncnc43)[C@H](O)[C@@H]2O)cc1C#N [Compound 12r]
EC (extracellular concentration in the media at t = 60 min) ± sd (VERO-E6 cells): 1.1 ± 0.5 µM
IC (intracellular concentration in the cells at t = 60 min) ± sd (VERO-E6 cells): 19,777 ± 7485 μM
IC50 [1]: 0.023 ± 0.0037 µM
EC50 (SARS-CoV-2): > 100 µM
Microsomal stability Rem. at 45 min [2]: 80.9 ± 12.0%
Microsomal stability T1/2 [2]: Stable; also recorded: excellent stability
Microsomal stability Rem. at 45 min [3]: 83.3 ± 2.6%
Microsomal stability T1/2 [3]: Stable; also recorded: excellent stability
CC50 at 3 days (in vitro): > 100 µM

COc1ccc(S(=O)(=O)N(C)C[C@H]2O[C@@H](n3cc(C#Cc4cccnc4)c4c(N)ncnc43)[C@H](O)[C@@H]2O)cc1C#N [Compound 12s]
EC (extracellular concentration in the media at t = 60 min) ± sd (VERO-E6 cells): 2.6 ± 2.3 µM
IC (intracellular concentration in the cells at t = 60 min) ± sd (VERO-E6 cells): 13,578 ± 3626 μM
Kp at 1 h, 50 µM [4]: 5210
IC50 [1]: 0.021 ± 0.003 µM
EC50 (SARS-CoV-2): > 100 µM
Microsomal stability Rem. at 45 min [2]: 50.2 ± 3.2%
microsomal CLint at 5 µM [2]: 30.5 ± 4.7 µL/min/mg
half-life at 5 µM [2]: 50.8 ± 5.1 min
Microsomal stability Rem. at 45 min [3]: 55.9 ± 4.7%
microsomal CLint at 5 µM [3]: 27.1 ± 2 µL/min/mg
half-life at 5 µM [3]: 53.7 ± 2.7 min
CC50 at 3 days (in vitro): > 100 µM

CCN(C[C@H]1O[C@@H](n2cc(C#Cc3ccc(N)nc3)c3c(N)ncnc32)[C@H](O)[C@@H]1O)S(=O)(=O)c1ccc(OC)c(C#N)c1 [Compound 12h]
EC (extracellular concentration in the media at t = 60 min) ± sd (VERO-E6 cells): 19.5 ± 2.0 µM
Kp at 1 h, 50 µM [4]: 885
IC50 [1]: 0.046 ± 0.0058 µM
EC50 (SARS-CoV-2): > 100 µM
Microsomal stability Rem. at 45 min [2]: 43.0 ± 0.8%
microsomal CLint at 5 µM [2]: 37.8 ± 1.8 µL/min/mg
half-life at 5 µM [2]: 37.3 ± 1.8 min
Microsomal stability Rem. at 45 min [3]: 47.2 ± 3.5%
microsomal CLint at 5 µM [3]: 34.9 ± 4 µL/min/mg
half-life at 5 µM [3]: 38 ± 3.7 min
CC50 at 3 days (in vitro): > 100 µM

CCN(C[C@H]1O[C@@H](n2cc(C#Cc3ccc(C(N)=O)cc3)c3c(N)ncnc32)[C@H](O)[C@@H]1O)S(=O)(=O)c1ccc(OC)c(C#N)c1 [Compound 12o]
EC (extracellular concentration in the media at t = 60 min) ± sd (VERO-E6 cells): 20.9 ± 0.8 µM
Kp at 1 h, 50 µM [4]: 247
IC50 [1]: 0.049 ± 0.0062 µM
EC50 (SARS-CoV-2): > 100 µM
Microsomal stability Rem. at 45 min [2]: 65.9 ± 3.2%
microsomal CLint at 5 µM [2]: 19.2 ± 1.7 µL/min/mg
half-life at 5 µM [2]: 74.9 ± 7.5 min
Microsomal stability Rem. at 45 min [3]: 30.5 ± 5.3%
microsomal CLint at 5 µM [3]: 53.8 ± 5.8 µL/min/mg
half-life at 5 µM [3]: 26.2 ± 3.4 min
CC50 at 3 days (in vitro): > 100 µM

CCN(C[C@H]1O[C@@H](n2cc(C#Cc3nc4ccccc4[nH]3)c3c(N)ncnc32)[C@H](O)[C@@H]1O)S(=O)(=O)c1ccc(OC)c(C#N)c1 [Compound 12a]
EC (extracellular concentration in the media at t = 60 min) ± sd (VERO-E6 cells): 42 ± 3.2 µM
Kp at 1 h, 50 µM [4]: 822
IC50 [1]: 0.037 ± 0.0065 µM
EC50 (SARS-CoV-2): > 100 µM
Microsomal stability Rem. at 45 min [2]: 48.7 ± 3.2%
microsomal CLint at 5 µM [2]: 32.6 ± 2.1 µL/min/mg
half-life at 5 µM [2]: 44.1 ± 2.7 min
Microsomal stability Rem. at 45 min [3]: 18.5 ± 4.0%
microsomal CLint at 5 µM [3]: 77.3 ± 10.3 µL/min/mg
half-life at 5 µM [3]: 17.3 ± 2.2 min
CC50 at 3 days (in vitro): > 100 µM

COc1ccc(S(=O)(=O)N(C)C[C@H]2O[C@@H](n3cc(C#Cc4cnc5ccccc5c4)c4c(N)ncnc43)[C@H](O)[C@@H]2O)cc1C#N [Compound 12q]
EC (extracellular concentration in the media at t = 60 min) ± sd (VERO-E6 cells): 0.1 ± 0.1 µM
IC (intracellular concentration in the cells at t = 60 min) ± sd (VERO-E6 cells): 18,533 ± 7709 μM
IC50 [1]: 0.019 ± 0.0025 µM
EC50 (SARS-CoV-2): > 100 µM
Microsomal stability Rem. at 45 min [2]: 101.0 ± 3.4%
Microsomal stability T1/2 [2]: Stable; also recorded: excellent stability
Microsomal stability Rem. at 45 min [3]: 105.0 ± 3.9%
Microsomal stability T1/2 [3]: Stable; also recorded: excellent stability
CC50 at 3 days (in vitro): > 100 µM

CCN(C[C@H]1O[C@@H](n2cc(C#Cc3cnc4ccccc4c3)c3c(N)ncnc32)[C@H](O)[C@@H]1O)S(=O)(=O)c1ccc(OC)c(C#N)c1 [Compound 12e]
EC (extracellular concentration in the media at t = 60 min) ± sd (VERO-E6 cells): 16.5 ± 3.6 µM
Kp at 1 h, 50 µM [4]: 608
IC50 [1]: 0.028 ± 0.005 µM
EC50 (SARS-CoV-2): > 100 µM
Microsomal stability Rem. at 45 min [2]: 79.3 ± 3.8%
Microsomal stability T1/2 [2]: Stable
Microsomal stability Rem. at 45 min [3]: 60.2 ± 3.5%
microsomal CLint at 5 µM [3]: 19.6 ± 6.1 µL/min/mg
half-life at 5 µM [3]: 91.3 ± 12.2 min
CC50 at 3 days (in vitro): > 100 µM
